# Source: patent US20060014723A1, “Anti-parasitic uses of borinic acid complexes” (priority 2004, published 2006)
# Legend:
# [1] = tested on: Leishmania donovani strain MHOM/ET1671L82; test: Leishmaniasis in vitro screening model (axenic amastigotes, Alamar Blue); format: cell-based; conditions: for IC50: Leishmania donovani, read-out: L. donovani IC50
# Summary of the method: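 Axenic L. donovani amastigotes (10^5 per well) from hamster spleen, grown at 37° C in SM medium pH 5.4 with 10% FBS, 5% CO2, exposed to serial 3-fold compound dilutions (30 to 0.041 μg/mL) for 72 h. Alamar Blue added for 2 h, fluorescence read (ex 536/em 588 nm); IC50 from sigmoidal curve versus control cultures.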
# [2] = tested on: T. b. rhodesiense STIB 900; test: African sleeping sickness in vitro screening model (Alamar Blue); format: cell-based, Trypanosoma brucei rhodesiense; conditions: for IC50: Trypanosoma brucei
# Summary of the method: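 Bloodstream-form trypomastigotes, 8×10^3/well, were grown in supplemented MEM with 15% horse serum, without hypoxanthine, at 37 °C in 5% CO2. They were exposed for 72 h to seven 3-fold dilutions from 90 to 0.123 μg/mL. Resazurin (Alamar Blue) was added for 2 h, fluorescence read at ex 536/em 588 nm, and IC50 taken as the mean of four values.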
# [3] = tested on: Trypanosoma cruzi Tulahuen C2C4 strain; test: Chagas disease in vitro screening model (beta-galactosidase strain in L-6 cells); format: cell-based; conditions: for IC50: Trypanosoma cruzi, TULAHUEN, L6, read-out: T. cruzi IC50
# Summary of the method: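 L-6 rat myoblasts in RPMI 1640/10% FBS at 37 °C were infected with 5×10^3 lacZ-expressing T. cruzi Tulahuen C2C4 trypomastigotes. CPRG/Nonidet substrate was read at 540 nm, and IC50 came from sigmoidal curves.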
# [4] = tested on: P. falciparum K1; test: Malaria in vitro screening model (3H-hypoxanthine incorporation); format: cell-based, Plasmodium falciparum; conditions: for IC50: Plasmodium falciparum, K1
# Protocol: […] P. falciparum K1 is used in this study. K1 (a clone originating from Thailand) is resistant to chloroquine and pyrimethamine. The strains are maintained in RPMI 1640 medium with 0.36 mM hypoxanthine, supplemented with 25 mM N 2-hydroxyethyipiperazine-N-2-ethane-sulphonic acid (HEPES), 25 mM NaHCO3, neomycin (100 U/mL) and 5 g/L of ALBUMAX® II (lipid-rich bovine serum albumin, GIBCO, Grand Island, N.Y., USA), together with 5% washed human A+ erythrocytes. All cultures and assays are conducted at 37° C. under an atmosphere of 4% CO2, 3% O2 and 93% N2. Cultures are kept in incubation chambers filled with the gas mixture. Subcultures are diluted to a parasitemia of between 0.1 and 0.5% and the medium is changed daily.
# Antimalarial activity is assessed using an adaptation of the procedures described by Desjardins et al. (Antimicrob. Agents Chemother. 16:710-718, 1979), and Matile and Pink (In: Lefkovits, I. and Pernis, B. (Eds.), Immunological Methods Vol. IV, Academic Press, San Diego, pp. 221-234, 1990).
# Stock drug solutions are prepared in 100% dimethylsulfoxide (DMSO) at 10 mg/mL, and heated or sonicated if necessary to dissolve the sample. After use, the stocks are kept at −20° C. For the assays, the compound is further diluted in serum-free culture medium and finally to the appropriate concentration in complete medium without hypoxanthine.
# Assays are performed in sterile 96-well microtiter plates, each well containing 200 μl of parasite culture (0.15% parasitemia, 2.5% hematocrit) with or without serial drug solutions. Seven 2-fold dilutions are used, covering a range from […] to 0.078 μg/mL. For active compounds the highest concentration is lowered (e.g., to […]); for plant extracts the highest concentration is increased to 50 μg/mL. […] After 48 hours of incubation at 37° C., 0.5 μCi ^3H-hypoxanthine is added to each well. Cultures are incubated for a further 24 h before being harvested onto glass-fiber filters and washed with distilled water. The radioactivity is counted using a Betaplate liquid scintillation counter (Wallac, Zurich, Switzerland). The results are recorded as counts per minute per well at each drug concentration and expressed as percentage of the untreated controls. IC50 values are calculated from the sigmoidal inhibition curves using Microsoft EXCEL.
smiles,measurement,setting,value
"Fc1cc(B(Oc2cccc3cccnc23)c2ccc(Cl)cc2)cc(C(F)(F)F)c1 [Compound 47, (4-Chlorophenyl)(3-fluoro-5-trifluoromethylphenyl)borinic acid quinolin-8-yl ester]",IC50,[1],0.51 µg/mL
same,IC50,[2],0.5 µg/mL
same,IC50,[3],1.7 µg/mL
same,IC50,[4],2.07 µg/mL
"N#Cc1cccc(B(Oc2cccc3cccnc23)c2cccc(F)c2)c1 [Compound 29, (3-Cyanophenyl)(3-fluorophenyl)borinic acid quinolin-8-yl ester]",IC50,[1],0.4 µg/mL
same,IC50,[2],0.33 µg/mL
same,IC50,[3],0.68 µg/mL
same,IC50,[4],1.83 µg/mL
Fc1cccc(B(Oc2cccc3cccnc23)c2ccc(Cl)c(C(F)(F)F)c2)c1 [Compound 115],L. donovani IC50,[1],0.59 µg/mL
same,T. b. rhodesiense IC50,[2],0.465 µg/mL
same,T. cruzi IC50,[3],3.6 µg/mL
same,P. falciparum IC50,[4],3.077 µg/mL
CC1(C)COC(c2cccc(B(Oc3c(Cl)cc(Cl)c4cccnc34)c3cccc(F)c3)c2)=N1 [Compound 81],L. donovani IC50,[1],0.18 µg/mL
same,T. b. rhodesiense IC50,[2],1.9 µg/mL
same,T. cruzi IC50,[3],4.2 µg/mL
same,P. falciparum IC50,[4],3.355 µg/mL
"Fc1cccc(C=CBOc2cccc3cccnc23)c1 [Compound 39, (3-Fluorophenyl)vinyl borinic acid quinolin-8-yl ester]",IC50,[1],0.34 µg/mL
same,IC50,[2],0.201 µg/mL
same,IC50,[3],1.41 µg/mL
same,IC50,[4],122 µg/mL
Cc1ccc(B(OC(=O)c2ncccc2O)c2ccc(C)c(Cl)c2)cc1Cl [Compound 69],L. donovani IC50,[1],0.22 µg/mL
same,T. b. rhodesiense IC50,[2],16.5 µg/mL
same,T. cruzi IC50,[3],3.35 µg/mL
same,P. falciparum IC50,[4],2.449 µg/mL
C=CB(Oc1c(Cl)cc(Cl)c2ccc(C)nc12)c1cccc(N(C)C)c1 [Compound 84],L. donovani IC50,[1],0.16 µg/mL
same,T. b. rhodesiense IC50,[2],0.915 µg/mL
same,T. cruzi IC50,[3],1.7 µg/mL
same,P. falciparum IC50,[4],2.364 µg/mL
"Fc1ccc(B(Oc2cccc3cccnc23)c2ccc(Cl)cc2)cc1 [Compound 15, (4-chlorophenyl)(4-fluorophenyl) borinic acid quinolin-8-yl ester]",IC50,[1],0.5 µg/mL
same,IC50,[2],0.28 µg/mL
same,IC50,[3],0.906 µg/mL
same,IC50,[4],1.82 µg/mL
O=C(O)CCCOc1cccnc1C(=O)OB(c1cccc(Cl)c1)c1cccc(Cl)c1 [Compound 75],L. donovani IC50,[1],0.61 µg/mL
same,T. b. rhodesiense IC50,[2],31.1 µg/mL
same,T. cruzi IC50,[3],8.9 µg/mL
same,P. falciparum IC50,[4],0.494 µg/mL
"Fc1cccc(B(Oc2cccc3cccnc23)c2cccc(Cl)c2)c1 [Compound 17, (3-Chlorophenyl)(3-fluorophenyl)borinic acid quinolin-8-yl ester]",IC50,[1],0.42 µg/mL
same,IC50,[2],0.18 µg/mL
same,IC50,[3],1.06 µg/mL
same,IC50,[4],1.77 µg/mL
"Fc1cccc(B(Oc2cccc3cccnc23)c2ccccc2Cl)c1 [Compound 30, (2-Chlorophenyl)(3-fluorophenyl)borinic acid quinolin-8-yl ester]",IC50,[1],0.58 µg/mL
same,IC50,[2],0.305 µg/mL
same,IC50,[3],0.82 µg/mL
same,IC50,[4],1.74 µg/mL
"CC1(C)COC(c2cccc(B(Oc3cccc4cccnc34)c3cccc(F)c3)c2)=N1 [Compound 19, [3-(4,5-Dihydro-4,4-dimethyloxazol-2yl)phenyl](3-fluorophenyl)borinic acid quinolin-8-yl ester]",IC50,[1],0.66 µg/mL
same,IC50,[2],0.32 µg/mL
same,IC50,[3],1.33 µg/mL
same,IC50,[4],1.89 µg/mL
"C=CB(Oc1cccc2cccnc12)c1cccnc1 [Compound 49, (3-Pyridyl)vinylborinic acid 8-hydroxyquinoline ester]",L. donovani IC50,[1],0.45 µg/mL
same,T. b. rhodesiense IC50,[2],0.2185 µg/mL
same,T. cruzi IC50,[3],1.345 µg/mL
same,P. falciparum IC50,[4],1.58 µg/mL
COC(=O)c1cccnc1C(=O)OB(c1ccc(C)c(Cl)c1)c1ccc(C)c(Cl)c1 [Compound 73],L. donovani IC50,[1],0.63 µg/mL
same,T. b. rhodesiense IC50,[2],21.3 µg/mL
same,T. cruzi IC50,[3],7.2 µg/mL
same,P. falciparum IC50,[4],2.997 µg/mL
CN(C)Cc1ccc(B(Oc2cccc3cccnc23)c2cc(F)cc(C(F)(F)F)c2)cc1 [Compound 120],L. donovani IC50,[1],0.44 µg/mL
same,T. b. rhodesiense IC50,[2],0.42 µg/mL
same,T. cruzi IC50,[3],4.9 µg/mL
same,P. falciparum IC50,[4],2.794 µg/mL
CN(C)Cc1ccc(B(Oc2cccc3cccnc23)c2ccc(C#N)cc2)cc1 [Compound 125],L. donovani IC50,[1],0.38 µg/mL
same,T. b. rhodesiense IC50,[2],0.5 µg/mL
same,T. cruzi IC50,[3],4.9 µg/mL
same,P. falciparum IC50,[4],4.973 µg/mL
"COc1cc(B(Oc2cccc3cccnc23)c2cccc(F)c2)ccc1Cl [Compound 45, (4-Chloro-3-methoxyphenyl)(3-fluorophenyl)borinic acid quinolin-8-yl ester]",IC50,[1],0.5 µg/mL
same,IC50,[2],0.48 µg/mL
same,IC50,[3],1.15 µg/mL
same,IC50,[4],1.84 µg/mL
C=CB(Oc1cccc2cccnc12)c1ccc(F)c(Cl)c1 [Compound 116],L. donovani IC50,[1],>30 µg/mL
same,T. b. rhodesiense IC50,[2],0.5865 µg/mL
same,T. cruzi IC50,[3],3.65 µg/mL
same,P. falciparum IC50,[4],3.95 µg/mL
Cc1ccc2c(Cl)cc(Cl)c(OB(c3ccc(Cl)cc3)c3ccc(Cl)cc3)c2n1 [Compound 80],L. donovani IC50,[1],0.12 µg/mL
same,T. b. rhodesiense IC50,[2],1.06 µg/mL
same,T. cruzi IC50,[3],1.315 µg/mL
same,P. falciparum IC50,[4],1.71 µg/mL
O=C(OB(c1ccc(Cl)cc1)c1ccc(Cl)cc1)c1ncccc1OCCN1CCOCC1 [Compound 76],L. donovani IC50,[1],2 µg/mL
same,T. b. rhodesiense IC50,[2],19.8 µg/mL
same,T. cruzi IC50,[3],4.05 µg/mL
same,P. falciparum IC50,[4],3.81 µg/mL
"Cc1ccc(B(Oc2cccc3cccnc23)c2ccccc2)cc1Cl [Compound 10, (3-Chloro-4-methylphenyl)phenylborinic acid quinolin-8-yl ester]",IC50,[1],0.38 µg/mL
same,IC50,[2],0.52 µg/mL
same,IC50,[3],4.2 µg/mL
same,IC50,[4],1.5 µg/mL
C=CB(Oc1c(N(C)C)cc(Cl)c2cccnc12)c1ccnc(Cl)c1 [Compound 83],L. donovani IC50,[1],1.1 µg/mL
same,T. b. rhodesiense IC50,[2],0.715 µg/mL
same,T. cruzi IC50,[3],0.77 µg/mL
same,P. falciparum IC50,[4],0.979 µg/mL
"Cc1ccccc1B(Oc1cccc2cccnc12)c1cccc(Cl)c1 [Compound 25, (3-Chlorophenyl)(2-methylphenyl)borinic acid quinolin-8-yl ester]",IC50,[1],0.41 µg/mL
same,IC50,[2],0.295 µg/mL
same,IC50,[3],0.905 µg/mL
same,IC50,[4],1.81 µg/mL
"Clc1ccccc1C=CBOc1cccc2cccnc12 [Compound 36, (2-Chlorophenyl)vinyl borinic acid quinolin-8-yl ester]",IC50,[1],0.39 µg/mL
same,IC50,[2],0.18 µg/mL
same,IC50,[3],0.785 µg/mL
same,IC50,[4],1.5 µg/mL
N#Cc1cccc(B(Oc2cccc3cccnc23)c2ccc(F)cc2F)c1 [Compound 96],L. donovani IC50,[1],0.63 µg/mL
same,T. b. rhodesiense IC50,[2],0.34 µg/mL
same,T. cruzi IC50,[3],3.3 µg/mL
same,P. falciparum IC50,[4],3.035 µg/mL
